Experimental data published in ChEMBL document CHEMBL6087483 (J Med Chem, 2025).
The source made the active and inactive calls. The calls are words filed in the database; no cut-off is given here.

Experiments:
[1] = Selectivity ratio of IC50 for antiproliferative activity against MTAP wild type human HCT-116 cells to IC50 for antiproliferative activity against MTAP deleted human HCT-116 cells; assay type: functional
HCT-116 [2] = test: Antiproliferative activity against MTAP deleted human HCT-116 cells assessed as inhibition of cell viability by luminescence based cell titer-glo assay; assay type: functional
HCT-116 [3] = test: Antiproliferative activity against MTAP wild type human HCT-116 cells assessed as inhibition of cell viability by luminescence based cell titer-glo assay; assay type: functional
[4] = Cmax in male CD-1 mouse at 5 mg/kg, po or 1 mg/kg, iv measured upto 24 hrs; assay type: ADME, organism-based; settings: in vivo
[5] = AUC (0 to 24 hrs) in male CD-1 mouse at 5 mg/kg, po or 1 mg/kg, iv measured upto 24 hrs; assay type: ADME, organism-based; settings: in vivo
[6] = Oral bioavailability in male CD-1 mouse at 5 mg/kg or 1 mg/kg, iv measured upto 24 hrs; assay type: ADME, organism-based; settings: in vivo
[7] = Volume of distribution at steady state in male Sprague-Dawley rat at 5 mg/kg, po or 1 mg/kg, iv measured upto 24 hrs; assay type: ADME, organism-based; settings: in vivo
[8] = Cmax in male Sprague-Dawley rat at 5 mg/kg, po or 1 mg/kg, iv measured upto 24 hrs; assay type: ADME, organism-based; settings: in vivo
[9] = AUC (0 to 24 hrs) in male Sprague-Dawley rat at 5 mg/kg, po or 1 mg/kg, iv measured upto 24 hrs; assay type: ADME, organism-based; settings: in vivo
[10] = Oral bioavailability in male Sprague-Dawley rat at 5 mg/kg or 1 mg/kg, iv measured upto 24 hrs; assay type: ADME, organism-based; settings: in vivo
[11] = Volume of distribution at steady state in male Beagle dog at 3 mg/kg, po or 1 mg/kg, iv measured upto 24 hrs; assay type: ADME, organism-based, Canis lupus familiaris; settings: in vivo
[12] = Cmax in male Beagle dog at 3 mg/kg, po or 1 mg/kg, iv measured upto 24 hrs; assay type: ADME, organism-based, Canis lupus familiaris; settings: in vivo
[13] = AUC (0 to 24 hrs) in male Beagle dog at 3 mg/kg, po or 1 mg/kg, iv measured upto 24 hrs; assay type: ADME, organism-based, Canis lupus familiaris; settings: in vivo
[14] = Oral bioavailability in male Beagle dog at 3 mg/kg or 1 mg/kg, iv measured upto 24 hrs; assay type: ADME, organism-based, Canis lupus familiaris; settings: in vivo
[15] = biological target: T1, Protein arginine N-methyltransferase 5 (Homo sapiens, UniProt O14744); test: Inhibition of PRMT5 (unknown origin) in presence of MTA
[16] = biological target: T1, Protein arginine N-methyltransferase 5; test: Inhibition of PRMT5 (unknown origin)
Lu-99 cell line [17] = test: Antiproliferative activity against MTAP null human Lu-99 cell line assessed as inhibition of cell viability measured after 10 days by luminescence based cell titer-glo assay; assay type: functional; settings: Lu-99, 240 h
DOHH-2 = test: Antiproliferative activity against MTAP null human DOHH-2 cells assessed as inhibition of cell viability measured after 10 days by luminescence based cell titer-glo assay; assay type: functional; settings: DOHH-2, 240 h
[18] = Antiproliferative activity against MTAP null human HCC15 cells assessed as inhibition of cell viability measured after 10 days by luminescence based cell titer-glo assay; assay type: functional; settings: HCC15, 240 h
[19] = Antiproliferative activity against MTAP null human NCI-H647 cells assessed as inhibition of cell viability measured after 10 days by luminescence based cell titer-glo assay; assay type: functional; settings: NCI-H647, 240 h
[20] = Antiproliferative activity against MTAP wild type human KURAMOCHI cells assessed as inhibition of cell viability measured after 10 days by luminescence based cell titer-glo assay; assay type: functional; settings: 240 h
BT-20 = test: Antiproliferative activity against MTAP wild type human BT-20 cells assessed as inhibition of cell viability measured after 10 days by luminescence based cell titer-glo assay; assay type: functional; settings: BT-20, 240 h
MDA-MB-436 = test: Antiproliferative activity against MTAP wild type human MDA-MB-436 cells assessed as inhibition of cell viability measured after 10 days by luminescence based cell titer-glo assay; assay type: functional; settings: MDA-MB-436, 240 h
HCC95 = test: Antiproliferative activity against MTAP wild type human HCC95 cells assessed as inhibition of cell viability measured after 10 days by luminescence based cell titer-glo assay; assay type: functional; settings: HCC95, 240 h
[21] = biological target: T1, Protein arginine N-methyltransferase 5; test: Inhibition of PRMT5 in MTAP deleted human Lu-99 cell line assessed as reduction in SDMA level at upto 1000 nM measured after 5 days by Western blot analysis; assay type: cell-based; settings: time 5.0 day
[22] = biological target: T1, Protein arginine N-methyltransferase 5; test: Inhibition of PRMT5 in MTAP deleted human Lu-99 cell line assessed as decrease pRb (Ser807/811) level at upto 1000 nM measured after 5 days by Western blot analysis; assay type: cell-based; settings: time 5.0 day
[23] = biological target: T1, Protein arginine N-methyltransferase 5; test: Inhibition of PRMT5 in MTAP deleted human Lu-99 cell line assessed as increase in p21 level at upto 1000 nM measured after 5 days by Western blot analysis; assay type: cell-based; settings: time 5.0 day
[24] = biological target: T1, Protein arginine N-methyltransferase 5; test: Inhibition of PRMT5 in MTAP deleted human Lu-99 cell line assessed as increase in gammaH2AX level at upto 1000 nM measured after 5 days by Western blot analysis; assay type: cell-based; settings: time 5.0 day
Lu-99 cell line [25] = test: Antitumor activity against human Lu-99 cell line xenografted in female BALB/c nude mouse model assessed as tumor growth inhibition administered once daily via oral gavage and measured upto 21 days by caliper method; assay type: functional; settings: dose 25-200 mg/kg, time <= 21.0 day
Lu-99 cell line [26] = test: Antitumor activity against human Lu-99 cell line xenografted in female BALB/c nude mouse model assessed as tumor growth inhibition at 25 mg/kg administered once daily via oral gavage and measured upto 21 days by caliper method relative to control; assay type: functional; parameters: scale not given: the % may be the effect or the level left; settings: time <= 21 day
Lu-99 cell line [27] = test: Antitumor activity against human Lu-99 cell line xenografted in female BALB/c nude mouse model assessed as tumor growth inhibition at 50 mg/kg administered once daily via oral gavage and measured upto 21 days by caliper method relative to control; assay type: functional; parameters: scale not given: the % may be the effect or the level left; settings: time <= 21 day
Lu-99 cell line [28] = test: Antitumor activity against human Lu-99 cell line xenografted in female BALB/c nude mouse model assessed as tumor growth inhibition at 100 mg/kg administered once daily via oral gavage and measured upto 21 days by caliper method relative to control; assay type: functional; parameters: scale not given: the % may be the effect or the level left; settings: time <= 21 day
Lu-99 cell line [29] = test: Antitumor activity against human Lu-99 cell line xenografted in female BALB/c nude mouse model assessed as tumor growth inhibition at 200 mg/kg administered once daily via oral gavage and measured upto 21 days by caliper method relative to control; assay type: functional; parameters: scale not given: the % may be the effect or the level left; settings: time <= 21 day
[30] = biological target: T1, Protein arginine N-methyltransferase 5; test: In vivo inhibition of PRMT5 in female BALB/c nude mouse xenografted with human Lu-99 cell line assessed as inhibition of SDMA level administered once daily via oral gavage by Western blot analysis; assay type: functional, organism-based; settings: dose 25-200 mg/kg
[31] = biological target: T1, Protein arginine N-methyltransferase 5; test: In vivo inhibition of PRMT5 in female BALB/c nude mouse xenografted with human Lu-99 cell line assessed as inhibition of SDMA level at 25 mg/kg administered once daily via oral gavage by Western blot analysis relative to control; assay type: functional, organism-based; parameters: scale not given: the % may be the effect or the level left
[32] = biological target: T1, Protein arginine N-methyltransferase 5; test: In vivo inhibition of PRMT5 in female BALB/c nude mouse xenografted with human Lu-99 cell line assessed as inhibition of SDMA level at 50 mg/kg administered once daily via oral gavage by Western blot analysis relative to control; assay type: functional, organism-based; parameters: scale not given: the % may be the effect or the level left
[33] = biological target: T1, Protein arginine N-methyltransferase 5; test: In vivo inhibition of PRMT5 in female BALB/c nude mouse xenografted with human Lu-99 cell line assessed as inhibition of SDMA level at 100 mg/kg administered once daily via oral gavage by Western blot analysis relative to control; assay type: functional, organism-based; parameters: scale not given: the % may be the effect or the level left
[34] = biological target: T1, Protein arginine N-methyltransferase 5; test: In vivo inhibition of PRMT5 in female BALB/c nude mouse xenografted with human Lu-99 cell line assessed as inhibition of SDMA level at 200 mg/kg administered once daily via oral gavage by Western blot analysis relative to control; assay type: functional, organism-based; parameters: scale not given: the % may be the effect or the level left
[35] = Toxicity in female BALB/c nude mouse assessed as drug tolerance at 25 to 200 mg/kg, po administered once daily for 21 days; assay type: organism-based; settings: in vivo, 504 h, dose 25-200 mg/kg, time 21 day
[36] = Toxicity in female BALB/c nude mouse assessed as effect on body weight loss at 25 to 200 mg/kg, po administered once daily for 21 days; assay type: organism-based; settings: in vivo, 504 h, dose 25-200 mg/kg, time 21 day
[37] = Volume of distribution at steady state in male CD-1 mouse at 5 mg/kg, po or 1 mg/kg, iv measured upto 24 hrs; assay type: ADME, organism-based; settings: in vivo

T1 sequence (O14744 whole entry): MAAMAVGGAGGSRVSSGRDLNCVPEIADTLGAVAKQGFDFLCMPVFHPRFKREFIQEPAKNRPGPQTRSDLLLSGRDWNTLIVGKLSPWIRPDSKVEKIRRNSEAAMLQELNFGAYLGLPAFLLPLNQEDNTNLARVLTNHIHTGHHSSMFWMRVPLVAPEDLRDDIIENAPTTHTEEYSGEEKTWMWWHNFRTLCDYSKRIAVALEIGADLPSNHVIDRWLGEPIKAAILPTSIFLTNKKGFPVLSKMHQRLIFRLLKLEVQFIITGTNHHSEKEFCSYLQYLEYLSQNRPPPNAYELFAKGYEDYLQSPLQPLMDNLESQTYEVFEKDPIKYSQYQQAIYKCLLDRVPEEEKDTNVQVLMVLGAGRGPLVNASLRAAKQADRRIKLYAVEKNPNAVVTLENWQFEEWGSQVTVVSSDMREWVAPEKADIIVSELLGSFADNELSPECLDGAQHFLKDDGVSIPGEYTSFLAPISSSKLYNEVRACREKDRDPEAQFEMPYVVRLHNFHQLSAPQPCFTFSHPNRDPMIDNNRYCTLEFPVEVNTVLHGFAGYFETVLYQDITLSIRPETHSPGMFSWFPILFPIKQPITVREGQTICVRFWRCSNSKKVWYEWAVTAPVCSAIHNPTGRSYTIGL

For `Nc1nc2cnc(C(=O)N3CCOC[C@@H]3c3ccc(C(F)(F)F)cc3)cc2c2c1COC2`, the “Ratio IC50” value [1] was 66.
`CN(C(=O)c1ccc2nc(N)c3c(c2c1)COC3)[C@H]1CCCN(c2ccccc2)C1` gave an IC50 (HCT-116 [2]) of 6060 nM.
`CN(C(=O)c1cc2c3c(c(N)nc2cc1F)COC3)[C@@H]1CCN(c2ccc(C#N)cc2)C1` showed an IC50 (HCT-116 [2]) of 15 nM, an IC50 (HCT-116 [3]) of 1900 nM and a Cmax [4] of 1720 ng/mL. For the same molecule, the AUC [5] was 6900 ng·h/mL, the bioavailability [6] was 105% and the Vdss [7] was 1.52 L/kg. The Cmax [8] was 1020 ng/mL, the AUC [9] was 5610 ng·h/mL and the bioavailability [10] was 81%. The Vdss [11] was 1.87 L/kg, the Cmax [12] was 804 ng/mL and the AUC [13] was 6140 ng·h/mL. For the same molecule, the bioavailability [14] was 82.5%, the IC50 [15] was 4.7 nM and the IC50 [16] was 68 nM. The IC50 (Lu-99 cell line [17]) was 21.9 nM, the IC50 (DOHH-2) was 20.9 nM and the IC50 [18] was 6.6 nM. For the same molecule, the IC50 [19] was 118 nM, the IC50 [20] was 2960 nM and the IC50 (BT-20) was > 10000 nM. For the same molecule, the IC50 (MDA-MB-436) was 4870 nM, the IC50 (HCC95) was 2740 nM and the inhibition [21] was “Active”. For the same molecule, the inhibition [22] was “Active”, the inhibition [23] was “Active” and the inhibition [24] was “Active”. The Activity (Lu-99 cell line [25]) was “Dose-dependent-effect”, the Activity (Lu-99 cell line [26]) was 71% and the Activity (Lu-99 cell line [27]) was 76%. The Activity (Lu-99 cell line [28]) was 94%, the Activity (Lu-99 cell line [29]) was 102% and the Activity [30] was “Dose-dependent-effect”. The Activity [31] was 43%, the Activity [32] was 49% and the Activity [33] was 68%. The Activity [34] was 85%, the Activity [35] was “Non-toxic” and the Activity [36] was “Non-toxic”.
With `Cc1cc2nc(N)c3c(c2cc1C(=O)N(C)[C@@H]1CCN(c2ccc(C#N)cc2)C1)COC3` the IC50 (HCT-116 [2]) was 7 nM, the IC50 (HCT-116 [3]) was 1180 nM and the “Ratio IC50” value [1] was 169. It also gave a Vdss [37] of 2.84 L/kg, a Cmax [4] of 611 ng/mL and an AUC [5] of 1720 ng·h/mL. For the same molecule, the bioavailability [6] was 83.1%, the Vdss [7] was 1.29 L/kg and the Cmax [8] was 496 ng/mL. The AUC [9] was 2310 ng·h/mL and the bioavailability [10] was 46.1%.
Work on `CN(C(=O)c1ccc2nc(N)c3c(c2c1)COC3)[C@@H]1CCN(c2ccc3cnn(C)c3c2)C1` yielded an IC50 (HCT-116 [2]) of 313 nM and an IC50 (HCT-116 [3]) of 630 nM.
`N#Cc1ccc(N2C[C@@H]3C[C@H]2CN3C(=O)c2ccc3nc(N)c4c(c3c2)COC4)cc1` showed an IC50 (HCT-116 [2]) of 3170 nM.
With `CN(C(=O)c1ccc2nc(N)c3c(c2c1)COC3)[C@@H]1CCN(c2ccccc2)C1` the IC50 (HCT-116 [2]) was 1020 nM.
For `Cc1cc(NC(=O)C(=O)N2C[C@@H](C)CC[C@@H]2c2ccc3scnc3c2)cnc1N`, the “Ratio IC50” value [1] was 13.
`CN(C(=O)c1ccc2nc(N)c3c(c2c1)COC3)[C@@H]1CCN(c2cccc(C#N)c2)C1` showed an IC50 (HCT-116 [2]) of 317 nM and an IC50 (HCT-116 [3]) of 6620 nM.
With `CN(C(=O)c1ccc2nc(N)c3c(c2c1)COC3)[C@@H]1CCN(c2ccc(C(F)(F)F)cc2)C1` the IC50 (HCT-116 [2]) was 1090 nM and the IC50 (HCT-116 [3]) was > 10000 nM.
In the case of `Cc1cc2cc(C(=O)N(Cc3ccc(C(F)(F)F)cn3)C(C)c3ncccn3)ccc2nc1N` (centres undefined), the “Ratio IC50” value [1] is reported as 31.
With `CN(C(=O)c1ccc2nc(N)c3c(c2c1)COC3)[C@@H]1CCCN(c2ccccc2)C1` the IC50 (HCT-116 [2]) was > 10000 nM.
With `CN(C(=O)c1ccc2nc(N)c3c(c2c1)COC3)C1CCN(c2ccccc2)CC1` the IC50 (HCT-116 [2]) was 3890 nM.
